Reference: patent publication US20230087609A1, “USE OF A SOLUBLE GUANYLATE CYCLASE (sGC) STIMULATOR OR OF A COMBINATION OF A sGC STIMULATOR AND AN sGC ACTIVATOR FOR CONDITIONS WHEREIN THE HEME GROUP OF sGC IS OXIDIZED OR WHEREIN sGC IS DEFICIENT IN HEME” (Universiteit Maastricht, priority 2020, published 2023)

Test system: C57B16/J mice, transient occlusion of the middle cerebral artery (tMCAO)
Assay: tMCAO ischemia model, infarct size
Type: in vivo, mouse
Details: 0.1 mg/kg i.p. 1 h after reperfusion; 1 h tMCAO, 24 h reperfusion; versus non-treated animals (FIG. 10)
Procedure: C57B16/J mice were anesthetized with isoflurane (0.6% in oxygen). The animal was placed on a heating-pad, and rectal temperature was maintained at 37.0° C. Transient cerebral ischemia was induced using an intraluminal filament technique. Using a surgical microscope (Tecnoscopio OPMI pico, Carl Zeiss, Meditec Iberia SA, Spain), a midline neck incision was made and the right common and external carotid arteries were isolated and permanently ligated. A microvascular temporarily ligature was placed on the internal carotid artery to temporarily stop the blood flow. A silicon rubber-coated monofilament (6023910PK10, Doccol, USA) was inserted through a small incision into the common carotid artery and advanced into the internal carotid artery until a resistance is felt. […]
After sacrificing the mice, brains were quickly removed and cut in four 2-mm thick coronal sections using a mouse brain slice matrix (Harvard Apparatus, USA). […] Indirect infarct volumes were calculated by volumetry (ImageJ software, National Institutes of Health, USA) according to the following equation: Vindirect (mm^3)=Vinfarct×(1−(Vih−Vch)/Vch), where the term (Vih−Vch) represents the volume difference between the ischemic hemisphere and the control hemisphere and (Vih−Vch)/Vch expresses this difference as a percentage of the control hemisphere.

SMILES: COC(=O)N(C)c1c(N)nc(-c2nn(Cc3ccccc3F)c3ncccc23)nc1N [BAY 63-2521, riociguat]
- infarct size / infarct volume: reduces infarct size
